Data from article PMC5006944 (Cell, 2016).
Each block holds one compound with its values, some of them ahead of it.

Key:
[1] = target: GST-RBD (AA 1–149) of c-RAF (Homo sapiens, UniProt P04049); test: Differential scanning fluorimetry; format: binding; conditions: DSF
[2] = target: kinase domain (KD) of c-RAF (AA 306–648) (Homo sapiens, UniProt P04049); test: Differential scanning fluorimetry; format: binding; conditions: DSF
[3] = test system: GTP-RAS in HeLa and A431 cell lines; test: Active RAS pull-down after EGF stimulation, wild-type RAS cells; format: cell-based; conditions: serum-starved HeLa and A431 cells, 2 μM
[4] = test system: c-RAF kinase activity in HeLa and A431 cells; test: RAF kinase activity of c-RAF immunoprecipitates from EGF-stimulated cells; format: cell-based; conditions: pre-treatment of cells; MEK substrate
[5] = target: c-RAF/B-RAF heterodimer (Homo sapiens, UniProt P04049+P15056); test: c-RAF/B-RAF co-immunoprecipitation after EGF stimulation; format: cell-based; conditions: EGF-stimulated HeLa and A431 cells
Chain of c-RAF/B-RAF heterodimer (P04049 whole entry): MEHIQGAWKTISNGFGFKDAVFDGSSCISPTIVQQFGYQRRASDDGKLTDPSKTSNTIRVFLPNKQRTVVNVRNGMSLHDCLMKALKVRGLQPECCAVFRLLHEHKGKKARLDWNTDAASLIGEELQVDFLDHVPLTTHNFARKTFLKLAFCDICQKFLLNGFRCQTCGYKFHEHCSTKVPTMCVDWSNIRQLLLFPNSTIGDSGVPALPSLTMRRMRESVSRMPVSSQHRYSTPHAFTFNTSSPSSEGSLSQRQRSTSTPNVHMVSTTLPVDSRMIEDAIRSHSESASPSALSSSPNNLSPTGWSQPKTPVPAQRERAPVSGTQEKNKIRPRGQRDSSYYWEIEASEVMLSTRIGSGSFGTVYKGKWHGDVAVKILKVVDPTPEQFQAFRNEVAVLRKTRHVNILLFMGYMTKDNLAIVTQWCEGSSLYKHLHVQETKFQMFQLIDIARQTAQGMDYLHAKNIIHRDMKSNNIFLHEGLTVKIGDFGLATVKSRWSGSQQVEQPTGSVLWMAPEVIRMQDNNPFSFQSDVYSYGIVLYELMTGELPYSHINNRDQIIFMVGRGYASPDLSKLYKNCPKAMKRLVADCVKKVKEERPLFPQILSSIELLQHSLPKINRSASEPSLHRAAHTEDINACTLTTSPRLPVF
Chain of c-RAF/B-RAF heterodimer (P15056 whole entry): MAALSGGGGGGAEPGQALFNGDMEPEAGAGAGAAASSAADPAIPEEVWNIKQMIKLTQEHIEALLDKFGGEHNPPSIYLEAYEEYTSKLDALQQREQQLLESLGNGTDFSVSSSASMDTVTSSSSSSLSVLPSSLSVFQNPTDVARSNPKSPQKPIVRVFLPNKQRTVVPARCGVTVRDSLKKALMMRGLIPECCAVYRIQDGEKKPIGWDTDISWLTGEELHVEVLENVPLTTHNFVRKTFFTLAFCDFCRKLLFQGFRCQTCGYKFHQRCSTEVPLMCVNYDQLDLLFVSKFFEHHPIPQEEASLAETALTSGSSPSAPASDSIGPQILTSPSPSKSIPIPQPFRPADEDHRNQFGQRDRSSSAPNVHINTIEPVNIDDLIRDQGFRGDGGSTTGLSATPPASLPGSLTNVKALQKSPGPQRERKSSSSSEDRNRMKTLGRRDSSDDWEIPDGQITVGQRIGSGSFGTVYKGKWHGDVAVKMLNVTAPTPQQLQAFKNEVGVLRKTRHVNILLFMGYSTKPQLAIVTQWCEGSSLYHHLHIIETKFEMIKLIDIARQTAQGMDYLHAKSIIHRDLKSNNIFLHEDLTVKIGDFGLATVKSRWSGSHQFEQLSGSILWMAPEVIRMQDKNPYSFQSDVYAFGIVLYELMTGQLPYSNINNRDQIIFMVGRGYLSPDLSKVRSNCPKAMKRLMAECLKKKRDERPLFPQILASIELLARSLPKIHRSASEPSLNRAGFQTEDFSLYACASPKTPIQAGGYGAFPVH

[6] = test system: MEK and ERK phosphorylation in HeLa and A431 cells; test: MEK and ERK phosphorylation western blot, HeLa and A431 cells; format: cell-based
[7] = test system: c-RAF^Ser338 phosphorylation; test: EGF-induced c-RAF^Ser338 phosphorylation in HCT116 cells; format: cell-based, human; conditions: serum-starved HCT116, EGF 5 min
[8] = test system: mutant c-RAF RBDs; test: MST binding to mutant c-RAF RBDs; conditions: V69A
[9] = target: recombinant Ral-GDS RBD (Homo sapiens, UniProt Q12967); test: DSF and biotin-RGS pull-down, Ral-GDS RBD; format: binding; conditions: DSF and pull-down with biotin-RGS conjugate
Chain of recombinant Ral-GDS RBD (Q12967 798-885 limits assumed): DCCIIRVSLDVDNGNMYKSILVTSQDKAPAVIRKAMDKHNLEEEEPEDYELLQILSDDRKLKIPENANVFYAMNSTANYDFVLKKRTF

[10] = target: GTP-RAS and CRAF-RBD interaction (Homo sapiens, UniProt P04049); test: In vitro association of GST-RBD with GTP-RAS from EGF-stimulated A431 lysates; format: biochemical; conditions: GST-RBD pre-incubated with increasing concentrations
Chain of GTP-RAS and CRAF-RBD interaction (P04049 56-131 limits assumed): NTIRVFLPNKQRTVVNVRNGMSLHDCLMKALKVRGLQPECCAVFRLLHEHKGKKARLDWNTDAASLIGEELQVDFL

[11] = test system: HA-tagged mutant N-RAS G12D GTP-RAS in HeLa cells; test: Active RAS pull-down, HeLa cells expressing mutant N-RAS G12D; format: cell-based; conditions: pre-incubation
[12] = target: three RAF proteins; test: In vitro RAF kinase assays; format: biochemical
[13] = test system: MEK and ERK activation in N-RAS (G12D)-expressing HeLa, HCT-116 and A549 cells; test: MEK and ERK activation western blot, mutant RAS cells; format: cell-based
[14] = test system: c-RAF^Ser338 phosphorylation; test: c-RAF^Ser338 phosphorylation in synchronized HCT116 cells entering mitosis; format: cell-based, human; conditions: HCT116, released from double thymidine block
[15] = target: PLK1 association with c-RAF^Ser338 (Homo sapiens, UniProt P04049); test: PLK1 immunoprecipitation, associated c-RAF^Ser338 in HCT116 cells; format: cell-based; conditions: HCT116, anti-PLK1 immunoprecipitation
Chain of PLK1 association with c-RAF^Ser338 (P04049 whole entry): as the sequence (P04049 whole entry) above

[16] = test system: c-RAF^Ser338, MEK, ERK, and AKT phosphorylation; test: Western blot of xenograft tumor extracts; format: in vivo, mouse; conditions: tumor extracts vs placebo
[17] = test system: PanIN lesions (K-RAS^G12D); test: Pdx-cre:Kras^+/LSL G12D mouse model of pancreatic intraepithelial neoplasia; format: in vivo; conditions: 14 days
[18] = test system: PLK1; conditions: subsequent experiments by us and others; ref Steegmaier et al., 2007; cited from earlier work
[19] = test system: MDS patients with monosomy 7 and trisomy 8; conditions: phase III, MDS with monosomy 7 and trisomy 8; ref Garcia-Manero et al., 2016; cited from earlier work
[20] = test system: A549 (K-RAS^G12S) xenograft; test: A549 xenograft tumor growth; conditions: 100 mg/kg twice daily i.p., 16 days, nude mice
[21] = test system: HCT116 (K-RAS^G13D) xenograft; test: HCT116 xenograft tumor growth; conditions: 100 mg/kg twice daily i.p., 16 days, nude mice
[22] = target: GST-tagged c-RAF RBD (aa 1–149) (Homo sapiens, UniProt P04049); test: Microscale thermophoresis
Chain of GST-tagged c-RAF RBD (aa 1–149) (P04049 1-149): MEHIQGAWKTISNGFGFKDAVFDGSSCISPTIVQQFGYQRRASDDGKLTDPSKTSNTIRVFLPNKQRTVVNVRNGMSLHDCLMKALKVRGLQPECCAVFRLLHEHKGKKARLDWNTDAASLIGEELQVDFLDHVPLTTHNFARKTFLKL

[23] = target: GST-tagged B-RAF RBD (aa 151–230) (Homo sapiens, UniProt P15056); test: Microscale thermophoresis
Chain of GST-tagged B-RAF RBD (aa 151–230) (P15056 151-230): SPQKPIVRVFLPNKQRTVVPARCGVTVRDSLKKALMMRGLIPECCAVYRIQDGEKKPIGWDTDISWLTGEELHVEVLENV

Chain of GST-RBD (AA 1–149) of c-RAF (P04049 1-149): as the sequence (P04049 1-149) above
Chain of kinase domain (KD) of c-RAF (AA 306–648) (P04049 306-648): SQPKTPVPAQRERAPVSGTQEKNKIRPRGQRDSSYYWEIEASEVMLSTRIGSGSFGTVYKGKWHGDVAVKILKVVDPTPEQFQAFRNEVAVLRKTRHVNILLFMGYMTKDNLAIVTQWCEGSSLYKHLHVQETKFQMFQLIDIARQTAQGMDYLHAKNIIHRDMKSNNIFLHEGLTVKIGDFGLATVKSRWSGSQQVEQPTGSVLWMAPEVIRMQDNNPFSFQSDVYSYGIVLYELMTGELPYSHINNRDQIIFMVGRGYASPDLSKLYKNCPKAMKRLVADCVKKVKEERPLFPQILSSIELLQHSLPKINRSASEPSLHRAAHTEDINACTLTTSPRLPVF

- interaction with c-RAF RBD (change in Tm) [1]: not with the RBD
- interaction with c-RAF kinase domain (thermal shift) [2]: strong thermal shift
- c-RAF/B-RAF heterodimer formation [5]: enhanced the association
SMILES: CCCS(=O)(=O)Nc1ccc(F)c(C(=O)c2c[nH]c3ncc(-c4ccc(Cl)cc4)cc23)c1F [PLX4032, vemurafenib, reference compound]
- GTP-RAS pulled down by GST-RBD after EGF stimulation [3]: GTP-RAS could readily be pulled down
- EGF-induced activation of RAF kinase activity [4]: enhancement
- phosphorylation status of MEK and ERK [6]: a small increase or no change
- EGF-induced c-RAF^Ser338 phosphorylation [7]: little or no effect

SMILES: COc1cc(OC)c(/C=C/S(=O)(=O)Cc2ccc(OC)c(NCC(=O)O)c2)c(OC)c1 [RGS, rigosertib]
- binding affinity to c-RAF RBD mutants with reduced RAS binding ([8]; mutants K65A, V70A, and V88A, increased Kd values in MST): reduced binding affinities
- binding to c-RAF RBD mutants that abolished RAS binding ([8]; mutations T57A, R67A, L62A, V69G, and T68A): disrupted binding
- interaction with c-RAF RBD (change in Tm) [1]: bound to RGS
- interaction with c-RAF kinase domain (thermal shift) [2]: did not interact
- binding to Ral-GDS RBD [9]: binds to recombinant Ral-GDS RBD, in a concentration-dependent manner
- association of GST-RBD with activated RAS [10]: inhibition of its association with activated RAS in a concentration-dependent manner
- GTP-RAS pulled down by GST-RBD after EGF stimulation [3]: very little or no GTP-RAS could be precipitated
- levels of mutant GTP-RAS bound to GST-RBD [11]: no effect on the levels of GTP-RAS
- EGF-induced activation of RAF kinase activity [4]: inhibits EGF-induced activation of RAF kinase activity
- kinase activity of the three RAF proteins in in vitro assays [12]: does not inhibit
- c-RAF/B-RAF heterodimer formation [5]: nearly complete inhibition
- phosphorylation status of MEK and ERK [6]: reduction in MEK and ERK phosphorylation
- MEK and ERK activation [13]: inhibits MEK and ERK activation equally well
- EGF-induced c-RAF^Ser338 phosphorylation [7]: completely inhibited
- reduction of c-RAF^Ser338 phosphorylation [14]: 90%
- association of PLK1 with c-RAF^Ser338 [15]: little or no association
- c-RAF^Ser338, MEK, ERK, and AKT phosphorylation in tumors [16]: dramatically reduced
- decrease in number of PanIN 1B, 2, and 3 grade tumors ([17]; 200 mg/kg twice daily i.p.): statistically significant
- number of pancreatic lesions, less than placebo-treated group ([17]; 200 mg/kg twice daily i.p.): ~ 3 fold
- cleaved caspase-3-positive cells in PanIN lesions, greater than control ([17]; 200 mg/kg twice daily): ~4 fold
- phosphorylated ERK and AKT^Ser473 in PanINs ([17]; immunohistochemistry, 200 mg/kg twice daily): markedly decreased levels
- PLK1 kinase activity [18]: does not directly inhibit
- hazard ratio for survival [19]: 0.25–0.30
- tumor growth [20]: dramatically decreased tumor growth
- tumor growth [21]: dramatically decreased tumor growth
- Kd [22]: 0.18 nM
- Kd [23]: 0.71 nM

SMILES: COC(=O)Nc1nc2ccc(C(=O)c3cccs3)cc2[nH]1 [nocadazole, nocodazole, reference compound]
- association of PLK1 with c-RAF^Ser338 [15]: strong association
